According to publication PMC4798002 (Bioorganic & medicinal chemistry letters, 2014):
Values after ≈ are worked out from the molar mass of the structure shown. Where two headings read alike, the source gives them in different places.

What was measured:
[1] = test system: hyper-permeable, ANT(2″)-Ia-expressing strain of E. coli BW25113; assay: Checkerboard analysis with gentamicin against ANT; type: cell-based; details: for synergy with gentamicin (in words): ANT(2″)-Ia-expressing E. coli
[2] = test system: isogenic E. coli mutant with the gene encoding aminoglycoside phosphotransferase (APH[2″]-Id); assay: Checkerboard analysis with gentamicin against APH; type: cell-based; details: ANT(2″)-Ia-negative, APH(2″)-Id-positive bacteria
ANT(2″)-Ia [3] = molecular target: T1, ANT(2″)-Ia (Klebsiella pneumoniae, UniProt P0AE05); details: cited from earlier work
T1 sequence (P0AE05 whole entry): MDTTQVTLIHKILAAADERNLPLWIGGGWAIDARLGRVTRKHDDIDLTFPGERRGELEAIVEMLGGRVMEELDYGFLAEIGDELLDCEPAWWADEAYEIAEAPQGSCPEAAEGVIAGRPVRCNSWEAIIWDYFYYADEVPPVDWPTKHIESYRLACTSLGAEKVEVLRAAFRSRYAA

ANT(2″)-Ia [4] = molecular target: T1, ANT(2″)-Ia; assay: ANT; type: biochemical; details: for fold less potent than β-thujaplicinol: relative to β-thujaplicinol; for fold increase in activity over the other synthetic α-hydroxytropolones: relative to other synthetic α-hydroxytropolones
[5] = test system: E. coli BW25113 wild type; assay: Gentamicin MIC against wild type E. coli; type: cell-based; details: Escherichia coli, BW25113, read-out: gentamicin MIC
[6] = purified enzyme, 96 well format

CC(C)c1ccc(O)c(=O)c(O)c1 [β-thujaplicinol]
antibacterial effect of compound (in words) ([1]; 50 μM of compound): all of the bacterial cells have died
synergy with gentamicin (in words) [2]: no synergy
ANT(2″)-Ia inhibition (in words) (ANT(2″)-Ia [3]): capable of inhibiting

O=c1c(O)ccccc1O [α-hydroxytropolone]
ANT(2″)-Ia inhibition (in words) (ANT(2″)-Ia [3]): capable of inhibiting

O=c1cccccc1O [Tropolone]
ANT(2″)-Ia inhibition (in words) (ANT(2″)-Ia [3]): no activity

COc1cc(C)c(-c2ccc([N+](=O)[O-])cc2)cc(O)c1=O [4g]
ANT(2″)-Ia inhibitory activity (in words) (ANT(2″)-Ia [4]): inactive

Cc1cc(O)c(=O)c(O)cc1C(=O)C1CCCCC1 [3p]
ANT(2″)-Ia inhibitory activity (in words) (ANT(2″)-Ia [4]; [6]): inactivity

CC(=O)c1cc(O)c(=O)c(O)cc1C [3e]
ANT(2″)-Ia inhibitory activity (in words) (ANT(2″)-Ia [4]; [6]): significant inhibitory potency
fold less potent than β-thujaplicinol (ANT(2″)-Ia [4]): 5–10 fold
gentamicin concentration at which no growth is seen ([1]; 50 μM of compound, lowest concentration of gentamicin tested): ≤ 2 µg/mL
synergy with gentamicin (in words) [1]: Synergy

Cc1cc(O)c(=O)c(O)cc1-c1cccc2ccccc12 [3j]
ANT(2″)-Ia inhibitory activity (in words) (ANT(2″)-Ia [4]; [6]): no activity at all

Cc1cc(O)c(=O)c(O)cc1-c1ccc(C(F)(F)F)cc1 [3n]
ANT(2″)-Ia inhibitory activity (in words) (ANT(2″)-Ia [4]; [6]): no activity at all
synergy with gentamicin (in words) [1]: Synergy

Cc1cc(O)c(=O)c(O)cc1C(=O)CC1CCCCC1 [3q]
ANT(2″)-Ia inhibitory activity (in words) (ANT(2″)-Ia [4]; [6]): inactivity

Cc1cc(O)c(=O)c(O)cc1-c1ccc(Cl)cc1 [3m]
fold increase in activity over the other synthetic α-hydroxytropolones (ANT(2″)-Ia [4]): ~4 fold
synergy with gentamicin (in words) [1]: no synergistic activity

Cc1cc(O)c(=O)c(O)cc1-c1ccc2ccccc2c1 [3k]
ANT(2″)-Ia inhibitory activity (in words) (ANT(2″)-Ia [4]; [6]): no activity at all

Cc1cc(O)c(=O)c(O)cc1-c1ccccc1 [3i]
ANT(2″)-Ia inhibitory activity (in words) (ANT(2″)-Ia [4]; [6]): comparable potency to nitroaryl-containing 3g

Cc1cc(O)c(=O)c(O)cc1C(=O)C(C)C [3o]
ANT(2″)-Ia inhibitory activity (in words) (ANT(2″)-Ia [4]; [6]): appreciable inhibitory activity, which was comparable to 3e

Cc1cc(O)c(=O)c(O)cc1-c1ccc(-c2ccccc2)cc1 [3h]
synergy with gentamicin (in words) [1]: no synergistic activity

Cc1cc(O)c(=O)c(O)cc1-c1ccc([N+](=O)[O-])cc1 [3g]
ANT(2″)-Ia inhibitory activity (in words) (ANT(2″)-Ia [4]; [6]): significant inhibitory potency
fold less potent than β-thujaplicinol (ANT(2″)-Ia [4]): 5–10 fold
synergy with gentamicin (in words) [1]: no synergistic activity

CNC(C)C1CCC(N)C(OC2C(N)CC(N)C(OC3OCC(C)(O)C(NC)C3O)C2O)O1 (centres unmarked) [gentamicin, reference compound]
MIC ([1]; Escherichia coli, BW25113, read-out: gentamicin MIC): 64 µg/mL
MIC [5]: 0.25 µg/mL (≈ 0.523 µM)

Cc1cc(O)c(=O)c(O)cc1-c1ccc(Br)cc1 [3l]
fold increase in activity over the other synthetic α-hydroxytropolones (ANT(2″)-Ia [4]): ~4 fold
synergy with gentamicin (in words) [1]: no synergistic activity

COc1cc(C)c(C(C)=O)cc(O)c1=O [4e]
ANT(2″)-Ia inhibitory activity (in words) (ANT(2″)-Ia [4]): inactive
